Experimental data published in patent US8754094B2, “Methods for heat shock protein dependent cancer treatment” (The Research Foundation of State University of New York, priority 2007, dated 2014).
“Also recorded” adds a separate entry of the source. Like-named read-outs stand apart in the source and are kept apart here. Residues, ends and D or L forms follow the SMILES beside them. *: point of attachment. Cbz = O=C(OCc1ccccc1)*

Key:
[1] = system: NCI-H929; experiment: Annexin V / PI flow cytometry apoptosis assay, NCI-H929; type: cell-based, human; conditions: for induction of apoptosis at 18 h: NCI-H929, 18 h, MAL3-101 10 μM, MG-132 0.1 μM, alone or combined
Experimental: Each experiment was repeated at least three times. Every experimental condition was repeated at least in triplicate wells for every experiment. For cell death assays, 10^6 MM cells were exposed to media or drug for the indicated incubation periods, washed with 1× phosphate-buffered saline (PBS), pH 7.4 (Invitrogen) and resuspended in 500 μL, binding buffer (Annexin V-PI detection kit (Immunotech/Beckman Coulter, Fullerton, Calif.), containing 1 μL, annexin V-fluorescein isothiocyanate (FITC) stock and 5 μL 20 μg/mL […] (PI) to determinate the phosphatidylserine (PS) exposure on the outer plasma membrane. After incubation for 15 minutes at room temperature in the dark, the specimens were quantified by dual-color flow cytometry, acquiring 10,000 events. Cells that were Annexin V-FITC+(with translocation of phosphatidylserine from the inner to the outer leaflet of the plasma membrane) and PI− (with intact cellular membrane) were considered as early apoptotic cells.
Apoptosis induction in control (DMSO-treated) or inhibitor treated cells was determined using an Annexin-V-FLUOS Staining Kit according to the manufacturer's instructions (Roche, Indianapolis, Ind.). Briefly, cells (1×10^5) were harvested at indicated time points after treatment, and Annexin V-fluorescein isothiocyanate (FITC) and propidium iodide (PI) were added to individual samples and incubated for 30 min in a dark environment. Fluorescence was analyzed by a FACSort flow cytometer (BD Biosciences, San Jose, Calif.) by acquiring 10,000 events per sample.

[2] = system: XBP-1 mRNA splicing; experiment: RT-PCR analysis of XBP-1 mRNA splicing (UPR) in NCI-H929; type: cell-based, human; conditions: for XBP-1 mRNA splicing at early time points: NCI-H929, early time points (4 h), concentrations that gave synergistic cytotoxicity
Experimental: Total RNA was prepared from NCI-H929 and HEK293 cells using TRIzol reagent (Invitrogen, Carlsbad, Calif.) following exposure to MAL3-101, MG-132, and 17-AAG alone and in combination at the indicated time points. Tunicamycin was used at varying concentrations.
Total RNAs were used for the first-strand synthesis with the Superscript reverse transcriptase (Invitrogen, Carlsbad, Calif.). PCR primers (5′-[…]-3′ [Seq. ID No. 1] and 5′-[…]-3′ [Seq. ID No. 2]) encompassing the missing sequences in XPB-1s were used for the PCR amplification with AmpliTaq Gold polymerase (Applied Biosystem, Foster City, Calif.) with a probe set spanning the spliced-out region. PCR products were separated by electrophoresis on a 3% agarose gel (Agarose-1000, Invitrogen) and visualized them by ethidium bromide staining to assess the degree of X-box binding protein-1 unspliced (XBP-1u, ˜280 bp) and spliced (XBP-1s, ˜265 bp) mRNA.
Unspliced (XBP-1u, 285 bp) and spliced (XBP-1s, 259 bp) XBP-1 mRNA levels of treated NCI-H929 were determined by PCR amplification of total RNA that was reverse transcribed by SuperScript Reverse Transcriptase (Invitrogen, Carlsbad, Calif.). PCR primers (5′-[…]-3′ [Seq. ID No. 1] and 5′-[…]-3′ [Seq. ID No. 2]), which flank the 26-nt intron of XBP1 mRNA, were used for PCR amplification with Ex Taq polymerase (Takara Bio, Shiga, Japan).

[3] = system: BiP; experiment: Levels of ER lumenal chaperone BiP in NCI-H929; type: cell-based, human; conditions: NCI-H929, data not shown
[4] = system: NCI-H929; experiment: cells
Experimental: For cell survival assays, cells were plated in 96-well culture plates (BD Biosciences, San Jose, Calif.), 100,000 cells/well with 200 μl, of culture media. The effect of the drugs on cell survival was assessed, for example, by measuring 3-(4,5-dimethylthiazol-2-yl)-5-(3-carboxymethoxyphenyl)-2-(4-sulphophenyl)-2H-tetrazolium, inner salt (MTS) (Promega, Madison, Wis.) dye absorbance of viable cells by adding 40 μL of 5 mg/mL MTS to each well for the last 4 hours of drug exposure. Additional wells containing cells only (untreated control) or medium only (background medium control) were used as controls. Absorbance at 490 nm (A490) was measured using a spectrophotometer (Dynatech Laboratories, Chantilly, Va.). Viability was estimated according to the following formula: […]
Briefly, the cellular fraction affected (Fa) was calculated based on an MTS assay after exposing cells to the drugs alone or in combination at a given dose compared to untreated cells, using the formula: Fa=100−% Viable Cells. Fa values were entered into Calcusyn software (Biosoft, Ferguson, Mo. and Cambridge, United Kingdom) to obtain CI values. CI values <1.0 indicated a synergistic effect of the drugs used in combination. For Inhibitory Concentration, or IC, calculations, dose-effect curves for MAL3-101, MG-132, 17-AAG, and their combinations were used to interpolate the median inhibitory concentration that caused 30% (IC30), 50% (IC50), and 70% (IC70) reductions in the % viable cells compared to untreated cells.
Cells (1×10^5) were plated in 96-well microtiter plates (Costar, Cambridge, Mass.) in 100 μL, of growth medium and exposed for indicated periods to various concentrations of compounds or their combinations. Control cells were cultured in DMSO. All studies were performed in triplicate and repeated at least three times independently. Survival was measured by an MTS assay (Promega, Madison, Wis.) as per the manufacturer's directions. The absorbance (A450) ratio of treated to untreated cells, after the subtraction of background absorbance, was multiplied by 100 to obtain percent cell survival. Cell death was measured by trypan blue dye exclusion in identically plated cultures.
DMSO-treated cultures were compared to drug-treated cultures by Student's t tests or by Dunnett's post-hoc test following significant repeated-measures one-way analysis of variance. All tests were two-tailed, and statistical significance was set at P≦0.05. Isobologram analysis was performed to derive combination index (CI) values based upon the Chou-Talalay method using CalcuSyn software (Biosoft, Ferguson, Mo. and Cambridge, United Kingdom) as described in L. Catley, E. Weisberg, T. Kiziltepe, Y. T. Tai, T. Hideshima, P. Neri, P. Tassone, P. Atadja, D. Chauhan, N. C. Munshi, K. C. Anderson, Aggresome induction by proteasome inhibitor Bortezomib and {alpha}-tubulin hyperacetylation by tubulin deacetylase (TDAC) inhibitor LBH589 are synergistic in myeloma cells, Blood (2006), which is incorporated herein by reference.

[5] = read-out: IC50 (reduction of % viable cells), single agent, NCI-H929, 40 h exposure, MTS assay, agent alone

`CC(C)C[C@@H](C=O)NC(=O)[C@H](CC(C)C)NC(=O)[C@H](CC(C)C)NC(=O)OCc1ccccc1` [MG-132, reference compound] (Cbz-Leu-Leu-Leu-aldehyde) was tested, and the “induction of apoptosis at 18 h” value [1] was “neither drug alone was effective in inducing apoptosis”, the “XBP-1 mRNA splicing at early time points” value [2] was “no XBP-1 mRNA splicing was observed” and the “levels of BiP” value [3] was “did not change”. It also gave an IC50 ([4]; Homo sapiens, NCI-H929, 40 h, read-out: IC50 (reduction of % viable cells), single agent, NCI-H929, 40 h exposure, MTS assay, agent alone) of 1000 nM, an IC50 ([4]; Homo sapiens, NCI-H929, 40 h, read-out: IC50 of MG-132 in the presence of MAL3-101, NCI-H929, 40 h, MTS, MAL3-101 and MG-132 at equal concentrations) of 10 nM and an IC50 [4, 5] of 1700 nM.
For `CCCCCCN(C(=O)CCCCCN1C(=O)NC(c2ccc(-c3ccccc3)cc2)C(C(=O)OCc2ccccc2)=C1C)C(C(=O)NCCCC)c1ccc(OCC(=O)OC)c(C(=O)OC)c1` (centres unmarked) [MAL3-101], the apoptosis over time ([1]; NCI-H929, 10 μM, FACS) was “time-dependent increase in apoptosis”, the “induction of apoptosis at 18 h” value [1] was “neither drug alone was effective in inducing apoptosis” and the “XBP-1 mRNA splicing at high concentration” value ([2]; NCI-H929, 30 μM, after 24 h of culture) was “minimal XBP-1 mRNA splicing occurred”. The “XBP-1 mRNA splicing at early time points” value [2] was “there does not appear to be an effect; also recorded: no XBP-1 mRNA splicing was observed”, the “levels of BiP” value [3] was “did not change” and the “cytotoxicity compared among MM cell lines” value ([4]; 10 μM, NCI-H929 versus RPMI-8226 and U266) was “most sensitive; also recorded: highest level of cytotoxicity”. The IC50 [4, 5] was 8300 nM and the IC50 ([4]; read-out: IC50 as stated in the detailed description, multiple myeloma cells, rounded statement of the description) was 10000 nM.
